Read-outs that look alike come from different tables or passages of the source.
Tests used:
[1] = molecular target: T1, glycineB site of the NMDA receptor (rat cortical membranes) (Rattus norvegicus, UniProt P35439); assay: [3H]5,7-DCKA binding assay; details: 10 nM [3H]5,7-DCKA
T1 construct: The cortex was dissected and homogenised in 20 volumes of ice-cold 0.32M sucrose; from tissue; host or cells: brain cortex membranes of male Sprague-Dawley rats
Method: Tissue preparation was performed according to Foster and Wong (1987). Male Sprague-Dawley rats (200-250g) were decapitated and their brains were removed rapidly. The cortex was dissected and homogenised in 20 volumes of ice-cold 0.32M sucrose using a glass-Teflon homogenizer. The homogenate was centrifuged at 1000×g for 10 min. The pellet was discarded and the supernatant centrifuged at 20,000×g for 20 min. The resulting pellet was resuspended in 20 volumes of distilled water and centrifuged for 20 min at 8000×g. Then the supernatant and the buffy coat were centrifuged three times (48,000× g for 20 min) in the presence of 5 mM Tris-HCl, pH 7.4. All centrifugation steps were carried out at 4° C. After resuspension in 5 volumes of 5 mM Tris-HCl, pH 7.4 the membrane suspension was frozen rapidly at -80° C. until the day of assay. On the day of assay the membranes were thawed and washed four times by resuspension in 5 mM Tris-HCl, pH 7.4 and centrifugation at 48,000× g for 20 min. The final pellet was suspended in assay buffer.
The amount of protein in the final membrane preparation was determined according to the method of Lowry (1951) with some modifications (Hartfree, 1972). 50 μl of Protein samples (in triplicates) were diluted to 1 ml with distilled water and treated with 0.9 ml of a solution containing 2 g potassium sodium tartrate and 10 g Na2 CO3 in 500 ml 1N NaOH and 500ml water. Blank and standard (with bovine serum albumin) were set up in the same way. The tubes were placed in a water bath at 50° C. for 10 min. and cooled at room temperature. 100 μl of a solution containing 2 g potassium sodium tartrate and 1 g CuSO4 x 5 H2 O in 90 ml water and 10 ml 1N NaOH were added. The samples were left at room temperature for at least 10 min., then 3 ml of Folin-Ciocalteu reagent (1 ml of reagent diluted with 15 ml water) was added rapidly during mixing. The tubes were again heated at 50° C. for 10 min. and cooled to room temperature. Absorbencies were then read in 1 cm cuvets at 650 nm. The final protein concentration used for our studies was between 100 and 250 μg/ml.
Incubation in both binding assays was terminated using a Millipore filter system. The samples, all in triplicate, were rinsed three times with 2.5 ml ice cold assay buffer over glass fibre filters obtained from Schleicher & Schuell under a constant vacuum. Following separation and rinse the filters were placed into scintillation liquid (5 ml; Ultima Gold) and radioactivity retained on the filters was determined by using conventional liquid scintillation counter (Hewlett Packard, Liquid Scintillation Analyser). `Total binding` was the absolute amount of radioligand bound in the absence of any additives whereas `non-specific` binding was determined in the presence of a high concentration of competitor.
[^3 H]5,7-DCKA binding assay
Experiments were performed according to the methods modified from previous groups (Canton et al., 1991; Yoneda et al., 1993). Membranes were suspended and incubated in 10 mM Tris-HCl, pH 7.4. Incubation time was 45 min at 4° C. Non-specific binding of [^3 H]5,7-DCKA was defined by the addition of unlabeled glycine at 0.1 mM. The stop-solution contained 10 mM Tris-HCl and 10 mM magnesium sulphate, pH 7.4. Filtration was performed as rapidly as possible. Displacement experiments were performed with a fixed [^3 H]5,7-DCKA concentration of 10 nM. Test compounds were diluted in water or DMSO and added in at least 5 different concentrations.

NMDA receptor = molecular target: T2, NMDA receptor (Rattus norvegicus, UniProt P35439); assay: Patch clamp, inward currents to NMDA in cultured superior colliculus neurones; format: cell-based; details: for IC50 / IC50 against inward currents to NMDA: NMDA 200 μM; for voltage-dependence of effect: NMDA currents; for Kb: read-out: Kb (Cheng-Prusoff relationship)
T2 construct: endogenous in cells
Method: Cells were mechanically dissociated in 0.05% DNAase / 0.3% ovomucoid (Sigma) following a 15 minute pre-incubation with 0.66% trypsin / 0.1% DNAase (Sigma). The dissociated cells were then centrifuged at 18G for 10 minutes, resuspended in minimum essential medium (Gibco) and plated at a density of 200,000 cells cm onto poly-L-lysine (Sigma)-precoated plastic petri dishes (Falcon). The cells were nourished with NaHCO3 /HEPES-buffered minimum essential medium supplemented with 5% foetal calf serum and 5% horse serum (Gibco) and incubated at 37° C. with 5%CO2 at 95% humidity. The medium was exchanged completely following inhibition of further glial mitosis with cytosine-β-D-arabinofuranoside (20 μM Sigma) after about 7 days in vitro. Thereafter the medium was exchanged partially twice weekly. […] Moreover, the relatively small neurones (soma 15-20 μm .phi.) are ideally suited to minimise problems of buffered diffusion for concentration clamp experiments.
Patch clamp recordings were made from these neurones with polished glass electrodes (4-6 m.OMEGA.) in the whole cell mode at room temperature (20°-22° C.) with the aid of an EPC-7 amplifier (List). Test substances were applied by switching channels of a custom made fast superfusion system with a common outflow (10-20 ms exchange times). The contents of the intracellular solution were as follows (mM): CsCl (120), TEACl (20), EGTA (10), MgCl2 (1), CaCl2 (0.2), glucose (10), ATP (2), cAMP (0.25); pH was adjusted to 7.3 with CsOH or HCl. The extracellular solutions had the following basic composition (mM): NaCl (140), KCl (3), CaCl2 (0.2), glucose (10), HEPES (10), sucrose (4.5), tetrodotoxin (TTX 3*10-4). For most experiments glycine (1 μM) was present in all solutions. Experiments to test the glycine-dependence of the tricyclic "pyrido-phtalazin diones" were performed in the continuous presence of increasing concentrations of glycine (1-10 μM).
This effect was mediated at the glycineB site as evidenced by the parallel shift in the concentration-response curves in the presence of increasing glycine concentrations. Thus the Kbs of Mrz 2/502 as assessed according to the Cheng-Prusoff relationship were similar in glycine 1, 3 and 10 μM (80, 124 and 118 nM respectively). […] Choline derivatives had similar potencies to the free acids in vitro (Table14b).

[2] = glycine 1 μM, peak currents, read-out: Peak NMDA IC50
[3] = glycine 1 μM, plateau (steady-state) currents, read-out: Plateau NMDA IC50

SMILES | IC50 [1] [µM] | IC50 (NMDA receptor; [2]) [µM] | IC50 (NMDA receptor; [3]) [µM] | voltage-dependence of effect (NMDA receptor) | IC50 against inward currents to NMDA (NMDA receptor) | Kb (NMDA receptor; glycine 1 μM) [µM] | Kb (NMDA receptor; glycine 3 μM) [µM] | Kb (NMDA receptor; glycine 10 μM) [µM]
O=c1[nH][nH]c(=O)c2nc3ccc(Cl)cc3cc12 [Mrz 2/501] | 0.12 | 2.3 | 0.7 | not voltage-dependent |  |  |  | 
O=c1[nH]nc(O)c2c1cc1cc(Cl)ccc1[n+]2[O-] [Mrz 2/502, 8-chloro-4-hydroxy-1-oxo-1,2-dihydropyridazino[4,5-b]-quinoline 5-oxide] | 0.02 | 0.8 | 0.3 | not voltage-dependent | most potent | 0.08 | 0.124 | 0.118
O=c1[nH][nH]c(=O)c2nc3ccc(Br)cc3cc12 [Mrz 2/503] | 0.25 | 1.7 | 0.6 |  |  |  |  | 
O=c1[nH]nc(O)c2c1cc1cc(Br)ccc1[n+]2[O-] [Mrz 2/514, 8-bromo-4-hydroxy-1-oxo-1,2-dihydropyridazino[4,5-b]-quinoline 5-oxide] | 0.01 | 0.5 | 0.2 |  | most potent |  |  | 
O=c1[nH][nH]c(=O)c2nc3cc(Cl)c(Cl)cc3cc12 [Mrz 2/515] | 0.53 | 3.7 | 0.9 |  |  |  |  | 
O=c1[nH]nc(O)c2c1cc1cc(F)ccc1[n+]2[O-] [Mrz 2/516, 8-fluoro-4-hydroxy-1-oxo-1,2-dihydropyridazino[4,5-b]-quinoline 5-oxide] | 0.3 | 6.3 | 1.6 |  |  |  |  | 
O=c1[nH][nH]c(=O)c2nc3ccc(F)cc3cc12 [Mrz 2/519] | 1.1 | 18 | 5.8 |  |  |  |  | 
